The source of these data is patent US6949516B2, “Dipeptide apoptosis inhibitors and the use thereof” (Cytovia, Inc., priority 1997, dated 2005).

Where a SMILES comes first, the peptide text is derived from it. The star is where a group is joined. Cbz = O=C(OCc1ccccc1)*; CH2F = FC*

Assay [1] deals with HeLa cells. As to the kind of experiment: Effect of Z-VD-fmk on TNF-α-induced cell death in HeLa cells (calcein AM, Example 25). It is filed as cell-based. The following applies: below 50 μM (data not shown). The method, then:
Tumor necrosis factor alpha (TNF-α) can trigger apoptosis in a number of cell types by initiating the caspase cascade and its apoptosis inducing activity can be inhibited by peptide-based caspase inhibitors. However, high concentrations of the inhibitors (50 μM or greater) is required to have good anti-apoptotic effect. HeLa cells, a cell line commonly employed in TNF-α cell death studies, was used here to determine the anti-apoptotic potency of Z-VD-fmk.
HeLa cells were seeded in 48-well multidishes at a density of 50,000 cells per well 24 hours before treatment. They were then pre-incubated with varying concentrations of Z-VD-fmk for 2 hours and challenged with TNF-α (25 ng/mL) and cycloheximide (CHX; 30 μg/mL). The cultures were incubated for an additional 24 hours and dead cells were removed by two washes with PBS. The density of surviving cells was then measured by incubating each culture for 45 minutes with calcein AM, a profluorescent dye which is taken up by living cells and converted to a fluorescent product. The resulting data were expressed as % control values (control values were cells incubated with cycloheximide but without TNF-α).
Z-VD-fmk provided good cytoprotection at concentrations approaching 100 nM.

Assay [2] deals with PARP cleavage in Jurkat cells. In words: Inhibition of PARP cleavage in antiFas-treated Jurkat cells (Example 22, Western blot). It is filed as cell-based, human. The following applies: antiFas-treated Jurkat cells. An excerpt: The cleavage of the enzyme poly(ADP)ribose polymerase (PARP) appears to occur in all cells in which the caspase proteolytic cascade is activated. For this reason, PARP cleavage is widely used as a biochemical marker for caspase-mediated apoptosis. The ability of a cytoprotective drug to block PARP cleavage is considered to be an indication of the drug's ability to inhibit the caspase proteolytic cascade and, in particular, CPP32 (caspase-3), the main PARP protease. The ability of Cbz-Val-Asp(OMe)-CH2F to inhibit PARP cleavage was examined during Fas-mediated apoptosis of Jurkat cells, a human T-cell line. This cell culture model of apoptosis is well-characterized and is known to involve activation of at least two caspases, caspase-3 (CPP32) and caspase-8 (FLICE/MACH).
For PARP cleavage assays, Jurkat cells were seeded at a density of 500,000 cells per well in six-well multidishes in RPMI 1640 medium containing 10% FBS. The cells were pre-incubated with Cbz-Val-Asp(OMe)-CH2F or other test compounds for 2 hours at 37° C. in a CO2 incubator and then a monoclonal antibody to Fas was added at a final concentration of 500 ng/mL. Incubation at 37° C. in a CO2 incubator was continued for an additional 4 hours. […] An amount of lysate corresponding to 10 to 20 μg of protein was loaded on a 7.5% SDS polyacrylamide gel and electrophoresed for 2 to 2.5 hrs at 25 mA. The protein was then transferred to a PVDF membrane, probed with a rabbit polyclonal antibody to PARP, and visualized using chemiluminescence.
Jurkat cells were pre-incubated with 0.5, 5, or 50 μM of the following compounds: Cbz-Val-Asp(OMe)-CH2F (compound 1); BOC-Asp(OMe)-CH2F (compound 5); Cbz-Asp-α-([2,6-dichlorobenzoyloxy]-methyl ketone) (compound 6), Cbz-Glu(OMe)-Val-Asp(OMe)-CH2F (compound 3), Cbz-Asp(OMe)-Glu(OMe)-Val-Asp(OMe)-CH2F (SEQ ID NO:1) (compound 2), Cbz-Ile-Glu(OMe)-Thr-Asp(OMe)-CH2F (SEQ ID NO:2) (compound 4), or Cbz-Val-Ala-Asp(OMe)-CH2F (compound 7). The cells were then treated with antiFas and processed for Western Blotting.
(A western blot detects proteins with antibodies after separation by electrophoresis.)

Assay [3] has as its system HeLa cells. As to the kind of experiment: Cell death assay with HeLa cells, quantitative (calcein AM), TNF-α/CHX challenge. It is filed as cell-based. The protocol: (§1) The cytoprotective properties of Cbz-Val-Asp(OMe)CH2F were tested using HeLa cells challenged with tumor necrosis factor-alpha (TNF-α) and cycloheximide (CHX). This is a well-characterized cell culture model of apoptosis which is commonly used to analyze anti-apoptotic agents. Two types of experiments were performed: a qualitative assessment of cell death by visualization of the cells using phase contrast microscopy; and a quantitative assessment of cell death using the fluorescent dye calcein AM.
For quantitative assays, the degree of cell survival in the presence of test compounds is analyzed quantitatively using the indicator dye calcein AM. This dye is taken up and converted to a fluorescent derivative by living cells; the amount of activated dye in each well can then be assayed in a fluorometric plate reader and the degree of fluorescence is used as a measure of the number of surviving cells. For these assays, HeLa cells are seeded in 48-well plates at a density of 25,000 cells per well in 0.4 mL of Minimal Essential Medium containing 2 mM glutamine and 10% fetal bovine serum. 24 hours later the plating medium is removed and 0.5 mL of fresh medium containing test compound at various concentrations is added. The cells are pre-incubated with test compound for 2 hours at 37° C. in a CO2 incubator and then TNF-α and CHX are added at final concentrations of 25 ng/mL and 30 μg/mL, respectively. After a 24 hour incubation period, the cultures are washed twice with serum-free, phenol red-free Ham's F12 to remove dead cells and 125 μL of Ham's F12 containing 8 μM calcein AM is added. […] The data are expressed as “Percent Control,” which is calculated by the following equation: Percent Control=(Calcein AM Signal in the Presence of Test Compound+TNF-α and CHX/(Calcein AM Signal in the Presence of CHX Only)×100% The use of CHX-treated cultures as controls, rather than untreated cultures, allows one to correct for the cytostatic effects of CHX. However, because CHX by itself is also a mild inducer of apoptosis in HeLa cells, strong anti-apoptotic drugs will give a Percent Control value greater than 100%.
Quantitative experiments using calcein AM, as described above, corroborate the results obtained by microscopic examination. FIGS. 4 and 5 illustrate the results of two such experiments where the cytoprotective properties of Cbz-Val-Asp(OMe)-CH2F (a) were compared to BOC-Asp(OMe)-CH2F (b) (FIG. 5) and Cbz-Asp(OMe)-Glu(OMe)-Val-Asp(OMe)-CH2F (SEQ ID NO:1) (c) (FIG. 4) at three concentrations (0.5, 5 and 50 μM). […] By contrast, Cbz-Val-Asp(OMe)-CH2F (a) is as effective a cytoprotectant at 0.5 μM as Cbz-Asp(OMe)-Glu(OMe)-Val-Asp(OMe)-CH2F (SEQ ID NO:1) […] is at 50 μM (FIG. 4).
In order to determine the effect of Cbz-Val-Asp(OMe)-CH2F at low doses, HeLa cells were treated with a range of concentrations from 0.05 μM to 1 μM.

Assay [4] relates to HeLa cells. In words: Cell death assay with HeLa cells, qualitative (phase contrast microscopy), TNF-α/CHX challenge. It is filed as cell-based. To be noted: 24 hour incubation. The protocol: as §1
For photomicroscopy, HeLa cells are seeded in 12-well multidishes at a density of 100,000 cells per well in Minimal Essential Medium containing 2 mM glutamine and 10% fetal bovine serum. 24 hours later the plating medium is removed and fresh medium is added containing the cytoprotective test compound at various concentrations. The cells are pre-incubated with test compound for 2 hours at 37° C. in a CO2 incubator and then TNF-α and CHX are added at final concentrations of 25 ng/mL and 30 μg/mL, respectively. After a 24 hour incubation period, the cells are examined visually for evidence of cell death based on cell shape and degree of adherence. Cells are considered dead if they have become rounded up and phase bright and have detached from the substratum. Cells are considered alive if they have retained their normal morphology and remain attached to the substratum.
All of these compounds are the methyl ester derivatives. […] At 50 μM, the related peptides BOC-Asp(OMe)-CH2F (FIG. 1C) and Cbz-Glu(OMe)-Val-Asp(OMe)-CH2F (FIG. 1E) are also protective.

Assay [5] addresses T1, Caspase-3 (Homo sapiens, UniProt P42574).
T1 sequence (P42574 29-175 limits assumed): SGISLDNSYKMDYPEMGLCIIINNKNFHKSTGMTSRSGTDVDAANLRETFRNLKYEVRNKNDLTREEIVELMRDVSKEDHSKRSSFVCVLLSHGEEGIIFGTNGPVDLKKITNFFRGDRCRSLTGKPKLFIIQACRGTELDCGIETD
In words: Caspase-3 activity of the dipeptide inhibitors (Table III). It is filed as biochemical.

For `CC(=O)N[C@@H](CC(=O)O)C(=O)N[C@@H](CCC(=O)O)C(=O)N[C@H](C(=O)N[C@H](C=O)CC(=O)O)C(C)C` [Ac-DEVD-CHO], the “cytoprotection against TNF-α-induced cell death” value in assay [1] is listed as “very ineffective”.
On to `COC(=O)CC(NC(=O)OC(C)(C)C)C(=O)CF` (stereo not drawn) [BOC-Asp(OMe)-CH2F], for which the “inhibition of PARP cleavage” value in assay [2] (0.5 μM) was “only marginally effective”; in assay [2] (5 μM), “effective inhibitors”; in assay [2] (50 μM) it was “effective inhibitors”. Moreover, the “protection of HeLa cells from TNF-α/CHX (calcein AM)” value is “inactive” in assay [3] (0.5 μM), “effective cytoprotectant” in assay [3] (5 μM) and “effective cytoprotectant” in assay [3] (50 μM). For the same molecule, the “cytoprotection of HeLa cells from apoptotic effects of TNF-α and CHX (microscopy)” value (shortened to “cytoprotection of HeLa cells … (microscopy)”) in assay [4] (5 μM) is reported as “less effective”; in assay [4] (50 μM), “protective”.
For `COC(=O)CC[C@H](NC(=O)[C@H](CC(=O)OC)NC(=O)OCc1ccccc1)C(=O)N[C@H](C(=O)N[C@@H](CC(=O)OC)C(=O)CF)C(C)C` [Cbz-Asp(OMe)-Glu(OMe)-Val-Asp(OMe)-CH2F], the “inhibition of PARP cleavage” value is listed as “only marginally effective” in assay [2] (0.5 μM), “only marginally effective” in assay [2] (5 μM) and “inhibited PARP cleavage completely” in assay [2] (50 μM). Further, the “protection of HeLa cells from TNF-α/CHX (calcein AM)” value in assay [3] (50 μM) is “only minimally effective”. Also, the “cytoprotection of HeLa cells … (microscopy)” value is “no cytoprotective properties” in assay [4] (5 μM) and “only marginally effective” in assay [4] (50 μM).
For the molecule `O=C(O)CC(NC(=O)OCc1ccccc1)C(=O)COC(=O)c1c(Cl)cccc1Cl` (stereo not drawn) [Cbz-Asp-DCB, Cbz-Asp-α-([2,6-dichlorobenzoyloxy]methylketone)], the results for the “inhibition of PARP cleavage” value in assay [2] (0.5 μM), in assay [2] (5 μM) and in assay [2] (50 μM) were “only marginally effective”, “only marginally effective” and “inhibited PARP cleavage completely”, respectively.
`COC(=O)CC[C@H](NC(=O)OCc1ccccc1)C(=O)N[C@H](C(=O)N[C@@H](CC(=O)OC)C(=O)CF)C(C)C` [Cbz-Glu(OMe)-Val-Asp(OMe)-CH2F]: the “inhibition of PARP cleavage” value in assay [2] (0.5 μM) is “only marginally effective”; in assay [2] (5 μM), “effective inhibitors”; in assay [2] (50 μM), “effective inhibitors”. The figures for the “cytoprotection of HeLa cells … (microscopy)” value in assay [4] (5 μM) and in assay [4] (50 μM) were “less effective” and “protective”, respectively.
With `CC[C@H](C)[C@H](NC(=O)OCc1ccccc1)C(=O)N[C@@H](CCC(=O)OC)C(=O)N[C@H](C(=O)N[C@@H](CC(=O)OC)C(=O)CF)[C@@H](C)O` [Cbz-Ile-Glu(OMe)-Thr-Asp(OMe)-CH2F] (Cbz-IE(OMe)TD(OMe)-CH2F), the entries for the “inhibition of PARP cleavage” value in assay [2] (0.5 μM), in assay [2] (5 μM) and in assay [2] (50 μM) were “only marginally effective”, “only marginally effective” and “inhibited PARP cleavage completely”, respectively.
As to `COC(=O)C[C@H](NC(=O)[C@H](C)NC(=O)[C@@H](NC(=O)OCc1ccccc1)C(C)C)C(=O)CF` [Cbz-Val-Ala-Asp(OMe)-CH2F] (Cbz-Val-Ala-Asp(OMe)-CH2F), the “inhibition of PARP cleavage” value is recorded as “only marginally effective” in assay [2] (0.5 μM), “effective inhibitors” in assay [2] (5 μM) and “effective inhibitors” in assay [2] (50 μM). Besides, the “cytoprotection of HeLa cells from TNF-α/CHX at low doses” value in assay [3] (concentration range 0.05 μM to 1 μM) is reported as “no cytoprotection”.
With `COC(=O)CC[C@H](NC(=O)[C@H](CC(=O)OC)NC(=O)OCc1ccccc1)C(=O)N[C@H](C(=O)N[C@@H](CC(=O)OC)C(=O)CF)C(C)C` [Z-DEVD-fmk], in assay [1], the “cytoprotection against TNF-α-induced cell death” value is reported as “very ineffective”.
The IC50 is the midpoint of a concentration-inhibition curve. Read a low IC50 as greater potency in that assay. `O=C(O)CC(NC(=O)C(Cc1cnc[nH]1)NC(=O)OCc1ccccc1)C(=O)CF` [Z-L-His-Asp-fmk, Z-His-Asp-fmk] (Cbz-His-Asp-CH2F; configuration not given here): the IC50 in assay [5] was 770 nM.
Molecule `O=C(O)C[C@H](NC(=O)[C@@H]1CCCN1C(=O)OCc1ccccc1)C(=O)CF` [Z-L-Pro-Asp-fmk, Z-Pro-Asp-fmk] (Cbz-Pro-Asp-CH2F) displayed an IC50 in assay [5] of 410 nM.
In the case of `O=C(O)C[C@H](NC(=O)[C@H](Cc1ccc(O)cc1)NC(=O)OCc1ccccc1)C(=O)CF` [Z-L-Tyr-Asp-fmk, Z-Tyr-Asp-fmk] (Cbz-Tyr-Asp-CH2F), the midpoint of inhibition in assay [5], the IC50, lay at 660 nM.
The same measure, in the same setting: to `CC(C)[C@@H](C(=O)N[C@@H](CC(=O)O)C(=O)CF)N(C)C(=O)OCc1ccccc1` [Z-N-Me-L-Val-Asp-fmk, Z-N-Me-Val-Asp-fmk] belongs 1300 nM; to Cbz-Ala-Asp-CH2F [Z- -Ala-Asp-fmk], 3500 nM.
